Residues, ends and D or L forms follow the SMILES beside them.
System: CCD-966SK fibroblast cells
Assay: MTT assay (cell viability)
Type: cell-based, human
Settings: peptide at different concentrations, 24, 48 and 72 hours, FIG. 3
Procedure: CCD-966SK was skin fibroblast cells isolated from human breast and was purchased from BCRC (Bioresource Collection and Research Center, Hsinchu, Taiwan). It was cultured in Dulbecco's Modified Eagle Medium (DMEM) containing 10% (v/v) FBS and penicillin/streptomycin (100 IU/[…]) in 5% CO2 at 37° C.
The cells (3×10^3) in 100 μl complete DMEM were seeded in 96-well plates with or without MUC20 peptide NO.10. Ten microliters of 5 mg/ml 3-(4,5-dimethyl-2-thiazolyl)-2,5-diphenyl-2H-tetrazolium bromide solution (MTT; Sigma) was added to each well and incubated at 37° C. for 3 hours. After that, 100 μl 10% SDS in 0.01N HCl was added to dissolve the MTT formazan crystals. The resultant optical density was measured by spectrophotometry at dual wavelengths, 550 and 630 nm.
The cell viability of the CCD-966SK fibroblast cells was analyzed by MTT assays. The results were obtained from three independent experiments. The results of the cells treated with the peptide of SEQ ID NO: 1 for 24 hours (upper panel), 48 hours (middle panel), and 72 hours (lower panel) were shown in FIG. 3.

C[C@H](NC(=O)[C@H](CCC(=O)O)NC(=O)[C@@H](NC(=O)[C@H](CO)NC(=O)[C@H](CC(=O)O)NC(=O)[C@@H]1CCCN1)[C@@H](C)O)C(=O)N[C@@H](CCCCN)C(=O)O [peptide of SEQ ID NO: 1, ProAspSerThrGluAlaLys] (H-PDSTEAK-OH)
viability of the CCD-966SK fibroblast cells: did not significantly affect viability

Reference: patent US10258556B2, “Anti-aging peptide, its composition and method of using the same” (priority 2017, dated 2019)
